Measurements reported in patent US6737383B1, “Herbicidal oxadiazolidines” (priority 1999, dated 2004).

Legend:
soybean = test: Test B pre/postemergence soybean; assay type: in vivo, Glycine max
Method in brief: (§1)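 Test chemicals in a non-phytotoxic solvent mixture with surfactant were sprayed preemergence onto planted seeds and postemergence onto plants 2 to 18 cm tall (1- to 4-leaf stage). After twelve to sixteen days in a greenhouse, injury was visually rated against untreated controls from 0 (no effect) to 10 (complete control).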

wild oat = test: Test B pre/postemergence wild oat; assay type: in vivo, Avena fatua
Method in brief: as §1

crabgrass = test: Test B pre/postemergence crabgrass; assay type: in vivo, Digitaria sanguinalis
Method in brief: as §1

surinam grass = test: Test B pre/postemergence surinam grass; assay type: in vivo, Brachiaria decumbens
Method in brief: as §1

bedstraw = test: Test B pre/postemergence bedstraw; assay type: in vivo, Galium aparine; details: Rate 62 g/ha
Method in brief: as §1

wheat = test: Test B pre/postemergence wheat; assay type: in vivo, Triticum aestivum
Method in brief: as §1

pigweed = test: Test B pre/postemergence pigweed; assay type: in vivo, Amaranthus retroflexus
Method in brief: as §1

velvetleaf = test: Test B pre/postemergence velvetleaf; assay type: in vivo, Abutilon theophrasti
Method in brief: as §1

sugar beet = test: Test B pre/postemergence sugar beet; assay type: in vivo, Beta vulgaris
Method in brief: as §1

purple nutsedge = test: Test B pre/postemergence purple nutsedge; assay type: in vivo, Cyperus rotundus
Method in brief: as §1

giant foxtail = test: Test B pre/postemergence giant foxtail; assay type: in vivo, Setaria faberii
Method in brief: as §1

morningglory = test: Test B pre/postemergence morningglory; assay type: in vivo, Ipomoea hederacea
Method in brief: as §1

corn = test: Test B pre/postemergence corn; assay type: in vivo, Zea mays
Method in brief: as §1

cocklebur = test: Test B pre/postemergence cocklebur; assay type: in vivo, Xanthium strumarium
Method in brief: as §1

rape = test: Test B pre/postemergence rape; assay type: in vivo, Brassica napus
Method in brief: as §1

blackgrass = test: Test B pre/postemergence blackgrass; assay type: in vivo, Alopecurus myosuroides
Method in brief: as §1

[1] = Postemergence, Rate 62 g/ha, scale of 0 to 10, 0 is no effect, 10 is complete control
[2] = Postemergence, Rate 125 g/ha, scale 0 to 10, 0 is no effect, 10 is complete control
[3] = Postemergence, Rate 500 g/ha, scale 0 to 10, 0 is no effect, 10 is complete control
[4] = Preemergence, Rate 62 g/ha, scale of 0 to 10 where 0 is no effect and 10 is complete control
[5] = Preemergence, Rate 125 g/ha, scale 0 to 10, 0 is no effect, 10 is complete control
[6] = Preemergence, Rate 500 g/ha, scale of 0 to 10 where 0 is no effect and 10 is complete control
[7] = Rate 250 g/ha, Postemergence, scale of 0 to 10 where 0 is no effect and 10 is complete control

Compound: CCCCn1c(=O)on(C(=O)N(c2ccc(Cl)cc2)C(C)C)c1=O [Compound 527]
- Soybean plant response rating (soybean; [1]): 3
- Soybean plant response rating (soybean; [2]): 4
- Plant response rating, Soybean (soybean; [3]): 5
- Plant response rating, Soybean (soybean; [4]): 0
- Soybean plant response rating (soybean; [5]): 0
- Soybean plant response rating (0 to 10 scale) (soybean; Preemergence, Rate 250 g/ha): 0
- Soybean plant response rating (soybean; [6]): 0
- Plant response rating, Soybean (soybean; [7]): 4
- Wild oats plant response rating (wild oat; [1]): 0
- Wild oats plant response rating (wild oat; [2]): 0
- Plant response rating, Wild oats (wild oat; [3]): 0
- Plant response rating, Wild oats (wild oat; [4]): 0
- Wild oats plant response rating (wild oat; [5]): 0
- Wild oats plant response rating (0 to 10 scale) (wild oat; Preemergence, Rate 250 g/ha): 3
- Plant response rating, Wild oats (wild oat; [7]): 0
- Crabgrass plant response rating (crabgrass; [1]): 4
- Crabgrass plant response rating (crabgrass; [2]): 4
- Plant response rating, Crabgrass (crabgrass; [3]): 10
- Plant response rating, Crabgrass (crabgrass; [4]): 9
- Crabgrass plant response rating (crabgrass; [5]): 10
- Crabgrass plant response rating (0 to 10 scale) (crabgrass; Preemergence, Rate 250 g/ha): 10
- Crabgrass plant response rating (crabgrass; [6]): 10
- Plant response rating, Crabgrass (crabgrass; [7]): 9
- B. signalgrass plant response rating (surinam grass; [1]): 0
- B. signalgrass plant response rating (surinam grass; [2]): 0
- Plant response rating, B. signalgrass (surinam grass; [3]): 9
- Plant response rating, B. signalgrass (surinam grass; [4]): 2
- B. signalgrass plant response rating (surinam grass; [5]): 2
- B. signalgrass plant response rating (0 to 10 scale, 0 is no effect, 10 is complete control) (surinam grass; Preemergence, Rate 250 g/ha): 4
- Plant response rating, B. signalgrass (surinam grass; [7]): 0
- Bedstraw plant response rating (bedstraw; Postemergence, scale of 0 to 10, 0 is no effect, 10 is complete control): 0
- Plant response rating, Bedstraw (bedstraw; Preemergence, scale of 0 to 10 where 0 is no effect and 10 is complete control): 0
- Wheat plant response rating (wheat; [1]): 0
- Wheat plant response rating (wheat; [2]): 0
- Plant response rating, Wheat (wheat; [3]): 0
- Plant response rating, Wheat (wheat; [4]): 0
- Wheat plant response rating (wheat; [5]): 0
- Wheat plant response rating (0 to 10 scale) (wheat; Preemergence, Rate 250 g/ha): 0
- Plant response rating, Wheat (wheat; [7]): 0
- Redroot pigweed plant response rating (pigweed; [1]): 0
- Redroot pigweed plant response rating (pigweed; [2]): 0
- Plant response rating, Redroot pigweed (pigweed; [3]): 0
- Plant response rating, Redroot pigweed (pigweed; [4]): 0
- Redroot pigweed plant response rating (pigweed; [5]): 4
- Redroot pigweed plant response rating (0 to 10 scale) (pigweed; Preemergence, Rate 250 g/ha): 4
- Redroot pigweed plant response rating (pigweed; [6]): 4
- Plant response rating, Redroot pigweed (pigweed; [7]): 0
- Velvetleaf plant response rating (velvetleaf; [1]): 3
- Velvetleaf plant response rating (velvetleaf; [2]): 2
- Plant response rating, Velvetleaf (velvetleaf; [3]): 3
- Plant response rating, Velvetleaf (velvetleaf; [4]): 0
- Velvetleaf plant response rating (velvetleaf; [5]): 2
- Velvetleaf plant response rating (0 to 10 scale) (velvetleaf; Preemergence, Rate 250 g/ha): 2
- Velvetleaf plant response rating (velvetleaf; [6]): 2
- Plant response rating, Velvetleaf (velvetleaf; [7]): 3
- Sugarbeets plant response rating (sugar beet; [1]): 0
- Sugarbeets plant response rating (sugar beet; [2]): 0
- Plant response rating, Sugarbeets (sugar beet; [3]): 2
- Plant response rating, Sugarbeets (sugar beet; [4]): 0
- Sugarbeets plant response rating (sugar beet; [5]): 6
- Sugarbeets plant response rating (0 to 10 scale) (sugar beet; Preemergence, Rate 250 g/ha): 6
- Sugarbeets plant response rating (sugar beet; [6]): 6
- Plant response rating, Sugarbeets (sugar beet; [7]): 0
- Nutsedge plant response rating (purple nutsedge; [1]): 0
- Plant response rating, Nutsedge (purple nutsedge; [4]): 0
- Nutsedge plant response rating (purple nutsedge; [5]): 0
- Nutsedge plant response rating (0 to 10 scale) (purple nutsedge; Preemergence, Rate 250 g/ha): 0
- Nutsedge plant response rating (purple nutsedge; [6]): 0
- Plant response rating, Nutsedge (purple nutsedge; [7]): 0
- Giant foxtail plant response rating (giant foxtail; [1]): 5
- Giant foxtail plant response rating (giant foxtail; [2]): 8
- Plant response rating, Giant foxtail (giant foxtail; [3]): 9
- Plant response rating, Giant foxtail (giant foxtail; [4]): 9
- Giant foxtail plant response rating (giant foxtail; [5]): 10
- Giant foxtail plant response rating (0 to 10 scale) (giant foxtail; Preemergence, Rate 250 g/ha): 10
- Giant foxtail plant response rating (giant foxtail; [6]): 10
- Plant response rating, Giant foxtail (giant foxtail; [7]): 8
- Morningglory plant response rating (morningglory; [1]): 3
- Morningglory plant response rating (morningglory; [2]): 3
- Plant response rating, Morningglory (morningglory; [3]): 6
- Plant response rating, Morningglory (morningglory; [4]): 0
- Morningglory plant response rating (morningglory; [5]): 0
- Morningglory plant response rating (0 to 10 scale) (morningglory; Preemergence, Rate 250 g/ha): 0
- Morningglory plant response rating (morningglory; [6]): 2
- Plant response rating, Morningglory (morningglory; [7]): 5
- Corn plant response rating (corn; [1]): 0
- Corn plant response rating (corn; [2]): 0
- Plant response rating, Corn (corn; [3]): 0
- Plant response rating, Corn (corn; [4]): 0
- Corn plant response rating (corn; [5]): 0
- Corn plant response rating (0 to 10 scale) (corn; Preemergence, Rate 250 g/ha): 0
- Corn plant response rating (corn; [6]): 0
- Plant response rating, Corn (corn; [7]): 0
- Cocklebur plant response rating (cocklebur; [1]): 0
- Cocklebur plant response rating (cocklebur; [2]): 0
- Plant response rating, Cocklebur (cocklebur; [3]): 2
- Plant response rating, Cocklebur (cocklebur; [4]): 0
- Cocklebur plant response rating (cocklebur; [5]): 0
- Cocklebur plant response rating (0 to 10 scale) (cocklebur; Preemergence, Rate 250 g/ha): 0
- Cocklebur plant response rating (cocklebur; [6]): 3
- Plant response rating, Cocklebur (cocklebur; [7]): 2
- Rape plant response rating (rape; [1]): 0
- Rape plant response rating (rape; [2]): 0
- Plant response rating, Rape (rape; [3]): 2
- Plant response rating, Rape (rape; [4]): 0
- Rape plant response rating (rape; [5]): 2
- Rape plant response rating (0 to 10 scale) (rape; Preemergence, Rate 250 g/ha): 2
- Plant response rating, Rape (rape; [7]): 0
- Blackgrass plant response rating (blackgrass; [1]): 0
- Blackgrass plant response rating (blackgrass; [2]): 3
- Plant response rating, Blackgrass (blackgrass; [3]): 7
- Plant response rating, Blackgrass (blackgrass; [4]): 0
- Blackgrass plant response rating (blackgrass; [5]): 2
- Blackgrass plant response rating (0 to 10 scale) (blackgrass; Preemergence, Rate 250 g/ha): 2
- Plant response rating, Blackgrass (blackgrass; [7]): 4
